Test results taken from the supplement of paper PMC10307832.

How the values were obtained:
Assay in all cases: relative viability (nuclei count vs DMSO), 5 days (fraction); higher = more cells survive
PC-3 [JPC-3] = tested on: PC-3 [JPC-3]
In short: (§1)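 Values are medians from duplicate plates. Each reflects relative viability, defined as the nuclei count of treated wells over that of vehicle wells. Lung cancer cell lines in 1536-well plates were pin-tool dosed one day after seeding with one drug alone or with a fixed anchor-drug dose plus five library-drug doses (not always all listed) in √10 steps, then fixed, stained and imaged at 4× after 5 days.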

NCI-H2087 = tested on: NCI-H2087
In short: as §1

HCC-366 = tested on: HCC-366
In short: as §1

NCI-H2228 = tested on: NCI-H2228
In short: as §1

RERF-LC-KJ = tested on: RERF-LC-KJ
In short: as §1

NCI-H1395 = tested on: NCI-H1395
In short: as §1

ABC-1 = tested on: ABC-1
In short: as §1

NCI-H460 = tested on: NCI-H460
In short: as §1

LOU-NH91 = tested on: LOU-NH91
In short: as §1

NCI-H1793 = tested on: NCI-H1793
In short: as §1

UMC-11 = tested on: UMC-11
In short: as §1

NCI-H2405 = tested on: NCI-H2405
In short: as §1

HCC-78 = tested on: HCC-78
In short: as §1

LU99A = tested on: LU99A
In short: as §1

NCI-H3122 = tested on: NCI-H3122
In short: as §1

NCI-H2170 = tested on: NCI-H2170
In short: as §1

NCI-H1651 = tested on: NCI-H1651
In short: as §1

LC-2-ad = tested on: LC-2-ad
In short: as §1

NCI-H1755 = tested on: NCI-H1755
In short: as §1

NCI-H1944 = tested on: NCI-H1944
In short: as §1

ChaGo-K-1 = tested on: ChaGo-K-1
In short: as §1

CAL-12T = tested on: CAL-12T
In short: as §1

Work on `O=c1cc(-c2cccc3c2Sc2ccccc2S3)oc(N2CCOCC2)c1` + Cc1cc(Nc2cc(N3CCN(C)CC3)nc(Sc3ccc(NC(=O)C4CC4)cc3)n2)n[nH]1 [Tozasertib] (partner 0.1 µM) yielded a relative viability (PC-3 [JPC-3]; first compound 0.08 µM) of 0.861, a relative viability (PC-3 [JPC-3]; first compound 0.253 µM) of 0.871 and a relative viability (PC-3 [JPC-3]; first compound 0.8 µM) of 0.827. The relative viability (PC-3 [JPC-3]; first compound 2.53 µM) was 0.805, the relative viability (PC-3 [JPC-3]; first compound 8 µM) was 0.714 and the relative viability (NCI-H2087; first compound 0.08 µM) was 0.231. It also gave a relative viability (NCI-H2087; first compound 0.253 µM) of 0.282, a relative viability (NCI-H2087; first compound 0.8 µM) of 0.266 and a relative viability (NCI-H2087; first compound 2.53 µM) of 0.191. For the same molecule, the relative viability (NCI-H2087; first compound 8 µM) was 0.171, the relative viability (HCC-366; first compound 0.08 µM) was 0.144 and the relative viability (HCC-366; first compound 0.253 µM) was 0.367. It also gave a relative viability (HCC-366; first compound 0.8 µM) of 0.093, a relative viability (HCC-366; first compound 2.53 µM) of 0.0682 and a relative viability (HCC-366; first compound 8 µM) of 0.0642. For the same molecule, the relative viability (NCI-H2228; first compound 0.08 µM) was 0.213, the relative viability (NCI-H2228; first compound 0.253 µM) was 0.186 and the relative viability (NCI-H2228; first compound 0.8 µM) was 0.248. The relative viability (NCI-H2228; first compound 2.53 µM) was 0.163, the relative viability (NCI-H2228; first compound 8 µM) was 0.18 and the relative viability (RERF-LC-KJ; first compound 0.08 µM) was 0.417. It also gave a relative viability (RERF-LC-KJ; first compound 0.253 µM) of 0.478, a relative viability (RERF-LC-KJ; first compound 0.8 µM) of 0.539 and a relative viability (RERF-LC-KJ; first compound 2.53 µM) of 0.411. The relative viability (RERF-LC-KJ; first compound 8 µM) was 0.389, the relative viability (NCI-H1395; first compound 0.08 µM) was 0.755 and the relative viability (NCI-H1395; first compound 0.253 µM) was 0.738. The relative viability (NCI-H1395; first compound 0.8 µM) was 0.762, the relative viability (NCI-H1395; first compound 2.53 µM) was 0.681 and the relative viability (NCI-H1395; first compound 8 µM) was 0.703. It also gave a relative viability (ABC-1; first compound 0.08 µM) of 0.184, a relative viability (ABC-1; first compound 0.253 µM) of 0.203 and a relative viability (ABC-1; first compound 0.8 µM) of 0.158. For the same molecule, the relative viability (ABC-1; first compound 2.53 µM) was 0.181, the relative viability (ABC-1; first compound 8 µM) was 0.156 and the relative viability (NCI-H460; first compound 0.08 µM) was 0.453. It also gave a relative viability (NCI-H460; first compound 0.253 µM) of 0.364, a relative viability (NCI-H460; first compound 0.8 µM) of 0.147 and a relative viability (NCI-H460; first compound 2.53 µM) of 0.257. It also gave a relative viability (NCI-H460; first compound 8 µM) of 0.166, a relative viability (LOU-NH91; first compound 0.08 µM) of 0.652 and a relative viability (LOU-NH91; first compound 0.253 µM) of 0.678. The relative viability (LOU-NH91; first compound 0.8 µM) was 0.638, the relative viability (LOU-NH91; first compound 2.53 µM) was 0.568 and the relative viability (LOU-NH91; first compound 8 µM) was 0.679. It also gave a relative viability (NCI-H1793; first compound 0.08 µM) of 0.362, a relative viability (NCI-H1793; first compound 0.253 µM) of 0.38 and a relative viability (NCI-H1793; first compound 0.8 µM) of 0.325. It also gave a relative viability (NCI-H1793; first compound 2.53 µM) of 0.228, a relative viability (NCI-H1793; first compound 8 µM) of 0.245 and a relative viability (UMC-11; first compound 0.08 µM) of 0.198. For the same molecule, the relative viability (UMC-11; first compound 0.253 µM) was 0.19, the relative viability (UMC-11; first compound 0.8 µM) was 0.189 and the relative viability (UMC-11; first compound 2.53 µM) was 0.202. The relative viability (UMC-11; first compound 8 µM) was 0.234, the relative viability (NCI-H2405; first compound 0.08 µM) was 0.667 and the relative viability (NCI-H2405; first compound 0.253 µM) was 0.752. It also gave a relative viability (NCI-H2405; first compound 0.8 µM) of 0.72, a relative viability (NCI-H2405; first compound 2.53 µM) of 0.638 and a relative viability (NCI-H2405; first compound 8 µM) of 0.681. It also gave a relative viability (HCC-78; first compound 0.08 µM) of 0.295, a relative viability (HCC-78; first compound 0.253 µM) of 0.457 and a relative viability (HCC-78; first compound 0.8 µM) of 0.511. It also gave a relative viability (HCC-78; first compound 2.53 µM) of 0.384, a relative viability (HCC-78; first compound 8 µM) of 0.334 and a relative viability (LU99A; first compound 0.08 µM) of 0.279. The relative viability (LU99A; first compound 0.253 µM) was 0.252, the relative viability (LU99A; first compound 0.8 µM) was 0.28 and the relative viability (LU99A; first compound 2.53 µM) was 0.285. The relative viability (LU99A; first compound 8 µM) was 0.296, the relative viability (NCI-H3122; first compound 0.08 µM) was 0.488 and the relative viability (NCI-H3122; first compound 0.253 µM) was 0.404. The relative viability (NCI-H3122; first compound 0.8 µM) was 0.355, the relative viability (NCI-H3122; first compound 2.53 µM) was 0.424 and the relative viability (NCI-H3122; first compound 8 µM) was 0.479. The relative viability (NCI-H2170; first compound 0.08 µM) was 0.78, the relative viability (NCI-H2170; first compound 0.253 µM) was 0.739 and the relative viability (NCI-H2170; first compound 0.8 µM) was 0.894. The relative viability (NCI-H2170; first compound 2.53 µM) was 0.715, the relative viability (NCI-H2170; first compound 8 µM) was 0.676 and the relative viability (NCI-H1651; first compound 0.08 µM) was 0.669. For the same molecule, the relative viability (NCI-H1651; first compound 0.253 µM) was 0.668, the relative viability (NCI-H1651; first compound 0.8 µM) was 0.625 and the relative viability (NCI-H1651; first compound 2.53 µM) was 0.672. The relative viability (NCI-H1651; first compound 8 µM) was 0.669, the relative viability (LC-2-ad; first compound 0.08 µM) was 0.389 and the relative viability (LC-2-ad; first compound 0.253 µM) was 0.405. For the same molecule, the relative viability (LC-2-ad; first compound 0.8 µM) was 0.484, the relative viability (LC-2-ad; first compound 2.53 µM) was 0.411 and the relative viability (LC-2-ad; first compound 8 µM) was 0.435. The relative viability (NCI-H1755; first compound 0.08 µM) was 0.609, the relative viability (NCI-H1755; first compound 0.253 µM) was 0.582 and the relative viability (NCI-H1755; first compound 0.8 µM) was 0.592. For the same molecule, the relative viability (NCI-H1755; first compound 2.53 µM) was 0.64, the relative viability (NCI-H1755; first compound 8 µM) was 0.567 and the relative viability (NCI-H1944; first compound 0.08 µM) was 0.252. For the same molecule, the relative viability (NCI-H1944; first compound 0.253 µM) was 0.256, the relative viability (NCI-H1944; first compound 0.8 µM) was 0.23 and the relative viability (NCI-H1944; first compound 2.53 µM) was 0.24. It also gave a relative viability (NCI-H1944; first compound 8 µM) of 0.232, a relative viability (ChaGo-K-1; first compound 0.08 µM) of 0.213 and a relative viability (ChaGo-K-1; first compound 0.253 µM) of 0.215. For the same molecule, the relative viability (ChaGo-K-1; first compound 0.8 µM) was 0.218, the relative viability (ChaGo-K-1; first compound 2.53 µM) was 0.21 and the relative viability (ChaGo-K-1; first compound 8 µM) was 0.209. The relative viability (CAL-12T; first compound 0.08 µM) was 0.296, the relative viability (CAL-12T; first compound 0.253 µM) was 0.292 and the relative viability (CAL-12T; first compound 0.8 µM) was 0.32. For the same molecule, the relative viability (CAL-12T; first compound 2.53 µM) was 0.232 and the relative viability (CAL-12T; first compound 8 µM) was 0.224.
